This is an account of results in US9290476B2, “Methylene linked quinolinyl modulators of RORγt” (Janssen Pharmaceutica NV, priority 2012, dated 2016).

Structures are written as SMILES. Structures can show the parent of a compound that is named as a salt. Where two headings read alike, the source gives them in different places.

One test deals with human RORγt LBD (Homo sapiens (Human), UniProt P51449). Description: RORγt reporter assay (GAL4-RORγt LBD luciferase in HEK293T cells). The test is classed as cell-based. The method in brief: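 HEK293T cells transiently co-transfected with GAL4-DBD–wild-type human RORγt LBD (pBIND) and GAL4-responsive firefly luciferase reporter (pGL4.31); renilla luciferase from pBIND normalises transfection/viability. Cells in phenol-red-free DMEM, 5% lipid-reduced FCS, treated with compound 24 h. Firefly/renilla ratio plotted against compound concentration.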
human RORγt LBD, sequence (P51449 258-518): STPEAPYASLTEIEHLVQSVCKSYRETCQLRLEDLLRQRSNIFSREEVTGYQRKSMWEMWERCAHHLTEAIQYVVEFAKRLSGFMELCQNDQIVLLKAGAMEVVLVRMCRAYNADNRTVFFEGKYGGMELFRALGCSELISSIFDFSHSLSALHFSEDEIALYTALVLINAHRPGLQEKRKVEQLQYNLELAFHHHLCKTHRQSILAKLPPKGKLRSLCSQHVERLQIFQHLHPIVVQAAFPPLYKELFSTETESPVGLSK
For orientation: Reporter assays use an easily measured gene product as a stand-in for the process of interest.

For test [1], the system named is IL-17 production by CD4 T cells. As to the kind of experiment: Human Th17 assay (IL-17 production by CD4 T cells under Th17 differentiation). The format is cell-based. To be noted: read-out: Human Th17 Assay, IC50 μM. An excerpt: The human Th17 assay tests the effect of RORγt modulatory compounds on IL-17 production by CD4 T cells under conditions which favor Th17 differentiation.
Total CD4^+ T cells were isolated from the peripheral blood mononuclear cells (PBMC) of healthy donors using a CD4^+ T cell isolation kit II, following the manufacturer's instructions (Miltenyi Biotec). Cells were resuspended in a medium of RPMI-1640 supplemented with 10% fetal bovine serum, penicillin, streptomycin, glutamate, and β-mercaptoethanol and were added to 96-well plates at 1.5×10^5 per 100 μL per well. 50 μL of compound at titrated concentrations in DMSO were added into each well at final DMSO concentration at 0.2%. Cells were incubated for 1 hour, then 50 μL of Th17 cell differentiation medium was added to each well. The final concentrations of antibodies and cytokines (R&D Systems) in differentiation medium were: 3×10^6/mL anti-CD3/CD28 beads (prepared using human T cell activation/expansion kit, Miltenyi Biotec), 10 μg/mL anti-IL4, 10 μg/mL anti-IFNγ, 10 ng/mL IL1β, 10 ng/mL IL23, 50 ng/mL IL6, 3 ng/mL TGFβ and 20 U/mL IL2. Cells were cultured at 37° C. and 5% CO2 for 3 days. Supernatants were collected and the accumulated IL-17 in culture was measured by using MULTI-SPOT® Cytokine Plate following manufacture's instruction (Meso Scale Discovery). The plate was read using Sector Imager 6000, and IL-17 concentration was extrapolated from the standard curve. The IC50s were determined by GraphPad.

Where [2] appears, read: Homo sapiens, CD4+ T, 72 h, human CD4+ T cells, IL-17 after 3 days.
Where [3] appears, read: human CD4+ T cells, IL-17 after 3 days.

A word on the IC50: it is the concentration that gives 50% inhibition. As usually defined, the inhibition is the drop in the measured response relative to a control, in per cent. As for `Cn1cncc1C(O)(c1ccc2nc(Cl)c(Cc3ccc(-n4cccn4)cc3)c(Cl)c2c1)c1cncs1` (centres unmarked) [Example 15, (3-(4-(1H-Pyrazol-1-yl)benzyl)-2,4-dichloroquinolin-6-yl)(1-methyl-1H-imidazol-5-yl)(thiazol-5-yl)methanol.TFA], the IC50 against human RORγt LBD (HEK293T cells, 24 hours compound treatment) worked out at 0.013 µM; in test [1] (setting [2]), 0.024 µM. For the same compound, at human RORγt LBD (HEK-293T, read-out: RORγt reporter Assay, % inhibition @ 6 μM, HEK293T cells, 6 μM), the inhibition at 6 µM worked out at 104%.

Take `CCc1nc2ccc(C(O)(c3cnnn3C)C3CN(S(C)(=O)=O)C3)cc2c(Cl)c1Cc1ccc(C(F)(F)F)cc1` (single isomer, unassigned) [Example 91C, (4-Chloro-2-ethyl-3-(4-(trifluoromethyl)benzyl)quinolin-6-yl)(1-methyl-1H-1,2,3-triazol-5-yl)(1-(methylsulfonyl)azetidin-3-yl)methanol]: the “RORγt reporter Assay, % inhibition @ 6 μM” value on human RORγt LBD (HEK293T cells) was 102%. Moreover, in test [1] (setting [3]), the half-maximal inhibitory concentration (IC50) is 0.0025 µM.

As to `COc1nc2ccc(C(O)(c3cnnn3C)c3cnc(C)n3C)cc2c(Cl)c1Cc1ccc(C(F)(F)F)cc1` (single isomer, unassigned) [Example 80C, (4-chloro-2-methoxy-3-(4-(trifluoromethyl)benzyl)quinolin-6-yl)(1,2-dimethyl-1H-imidazol-5-yl)(1-methyl-1H-1,2,3-triazol-5-yl)methanol], the “RORγt reporter Assay, % inhibition @ 6 μM” value on human RORγt LBD (HEK293T cells) was determined as 93%. Moreover, the IC50 in test [1] (setting [3]) was found to be 0.002 µM.

As to `COc1nc2ccc(C(O)(c3ccc(C(F)(F)F)nc3)c3cncn3C)cc2c(Cl)c1Cc1ccc(-n2cccn2)cc1` (single isomer, unassigned) [Example 35C, (3-(4-(1H-pyrazol-1-yl)benzyl)-4-chloro-2-methoxyquinolin-6-yl)(1-methyl-1H-imidazol-5-yl)(6-(trifluoromethyl)pyridin-3-yl)methanol], the IC50 in test [1] amounted to 0.051 µM.

As to `COc1nc2ccc(C(O)(c3cnnn3C)c3cnnn3C)cc2c(Cl)c1Cc1ccc(-n2cccn2)cc1` [Example 61, (3-(4-(1H-Pyrazol-1-yl)benzyl)-4-chloro-2-methoxyquinolin-6-yl)bis(1-methyl-1H-1,2,3-triazol-5-yl)methanol], the IC50 in test [1] (Homo sapiens, CD4+ T, 72 h) came to 0.0042 µM.

Turning to `COc1nc2ccc(C(O)(c3ccc(C(F)(F)F)nc3)c3cncn3C)cc2c(Cl)c1Cc1ccc(-n2cccn2)cc1` (single isomer, unassigned) [Example 35B, (3-(4-(1H-pyrazol-1-yl)benzyl)-4-chloro-2-methoxyquinolin-6-yl)(1-methyl-1H-imidazol-5-yl)(6-(trifluoromethyl)pyridin-3-yl)methanol], the IC50 in test [1] (Homo sapiens, CD4+ T, 72 h) was determined as 0.074 µM.

On to `COc1nc2ccc(C(O)(c3ccc(C(F)(F)F)nc3)c3cncn3C)cc2c(Cl)c1Cc1ccc(-n2cccn2)cc1` (centres unmarked) [Example 35A, (3-(4-(1H-Pyrazol-1-yl)benzyl)-4-chloro-2-methoxyquinolin-6-yl)(1-methyl-1H-imidazol-5-yl)(6-(trifluoromethyl)pyridin-3-yl)methanol.TFA], for which the IC50 in test [1] (Homo sapiens, CD4+ T, 72 h) was found to be 0.3 µM.

For `COc1nc2ccc(C(O)(c3ccc(C(F)(F)F)nc3)c3cncn3C)cc2c(Cl)c1Cc1ccc(C(F)(F)F)cc1` (single isomer, unassigned) [Example 62C, (4-Chloro-2-methoxy-3-(4-(trifluoromethyl)benzyl)quinolin-6-yl)(1-methyl-1H-imidazol-5-yl)(6-(trifluoromethyl)pyridin-3-yl)methanol], in test [1], the IC50 was 0.064 µM.

Turning to `COc1nc2ccc(C(O)(c3cncn3C)C3CCN(C(C)=O)CC3)cc2c(Cl)c1Cc1ccc(-n2cccn2)cc1` (single isomer, unassigned) [Example 60B, 1-(4-((3-(4-(1H-Pyrazol-1-yl)benzyl)-4-chloro-2-methoxyquinolin-6-yl)(hydroxy)(1-methyl-1H-imidazol-5-yl)methyl)piperidin-1-yl)ethanone], the IC50 in test [1] (setting [2]) was 0.17 µM.

On to `COc1nc2ccc(C(O)(c3ccc(Cl)cc3)c3cncn3C)cc2c(Cl)c1Cc1ccc(C#N)cc1` (single isomer, unassigned) [Example 63C, 4-((4-Chloro-6-((4-chlorophenyl)(hydroxy)(1-methyl-1H-imidazol-5-yl)methyl)-2-methoxyquinolin-3-yl)methyl)benzonitrile], for which, in test [1] (Homo sapiens, CD4+ T, 72 h), the IC50 is 0.038 µM.
